The kinase profiling compilation of Christmann-Franck et al. (2016)

Experiments:
Test in all cases: radiometric filter-binding kinase assay
BRSK1 (human) = BRSK1 (human) (UniProt Q8TDC3)
BRSK2 (human) = BRSK2 (human) (UniProt Q8IWQ3)
CAMKK2 (human) = CAMKK2 (human) (UniProt Q96RR4)
DAPK1 (human) = DAPK1 (human) (UniProt P53355)
DYRK1A (human) = DYRK1A (human) (UniProt Q13627)
EEF2K (human) = EEF2K (human) (UniProt O00418)
EPHB4 (human) = EPHB4 (human) (UniProt P54760)
ERBB4 (human) = ERBB4 (human) (UniProt Q15303); details: compound 10.0 µM
FGFR1 (human) = FGFR1 (human) (UniProt P11362); details: compound 1.0 µM
GSK3B (human) = GSK3B (human) (UniProt P49841)
HIPK3 (human) = HIPK3 (human) (UniProt Q9H422)
HIPK3 (human), sequence (Q9H422 whole entry, looked up): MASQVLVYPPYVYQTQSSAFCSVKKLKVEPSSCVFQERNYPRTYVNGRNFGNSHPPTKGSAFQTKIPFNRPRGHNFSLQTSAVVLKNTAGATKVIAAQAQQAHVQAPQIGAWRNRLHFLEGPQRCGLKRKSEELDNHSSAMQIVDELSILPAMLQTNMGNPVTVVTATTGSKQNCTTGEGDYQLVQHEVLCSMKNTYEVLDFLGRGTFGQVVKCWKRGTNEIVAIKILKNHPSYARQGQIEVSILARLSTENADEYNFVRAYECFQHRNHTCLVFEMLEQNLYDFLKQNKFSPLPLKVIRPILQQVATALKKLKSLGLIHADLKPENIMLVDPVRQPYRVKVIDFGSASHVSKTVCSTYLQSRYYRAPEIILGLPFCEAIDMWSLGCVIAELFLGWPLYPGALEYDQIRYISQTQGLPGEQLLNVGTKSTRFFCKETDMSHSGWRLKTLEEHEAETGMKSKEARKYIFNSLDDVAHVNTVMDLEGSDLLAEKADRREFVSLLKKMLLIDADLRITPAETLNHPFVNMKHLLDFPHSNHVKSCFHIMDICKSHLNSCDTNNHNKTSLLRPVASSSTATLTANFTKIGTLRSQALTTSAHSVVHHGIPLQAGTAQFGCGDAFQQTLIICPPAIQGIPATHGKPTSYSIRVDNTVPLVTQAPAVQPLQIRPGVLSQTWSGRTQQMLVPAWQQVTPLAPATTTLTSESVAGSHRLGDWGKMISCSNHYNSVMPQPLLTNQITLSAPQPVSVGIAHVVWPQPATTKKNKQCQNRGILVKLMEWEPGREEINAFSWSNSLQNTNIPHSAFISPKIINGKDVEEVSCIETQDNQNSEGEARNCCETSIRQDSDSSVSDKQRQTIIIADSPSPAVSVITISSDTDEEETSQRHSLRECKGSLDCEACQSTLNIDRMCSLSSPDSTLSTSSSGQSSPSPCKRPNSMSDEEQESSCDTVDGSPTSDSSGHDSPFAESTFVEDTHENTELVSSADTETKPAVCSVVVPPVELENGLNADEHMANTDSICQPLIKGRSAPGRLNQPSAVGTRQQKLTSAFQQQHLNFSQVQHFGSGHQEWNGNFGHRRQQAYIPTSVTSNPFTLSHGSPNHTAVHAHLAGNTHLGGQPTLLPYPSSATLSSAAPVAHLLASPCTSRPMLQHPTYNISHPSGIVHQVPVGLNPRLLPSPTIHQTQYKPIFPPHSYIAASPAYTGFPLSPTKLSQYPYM

IGF1R (human) = IGF1R (human) (UniProt P08069)
IKBKE (human) = IKBKE (human) (UniProt Q14164)
MAP2K2 (human) = MAP2K2 (human) (UniProt P36507)
MAP2K2 (human), sequence (P36507 whole entry, looked up): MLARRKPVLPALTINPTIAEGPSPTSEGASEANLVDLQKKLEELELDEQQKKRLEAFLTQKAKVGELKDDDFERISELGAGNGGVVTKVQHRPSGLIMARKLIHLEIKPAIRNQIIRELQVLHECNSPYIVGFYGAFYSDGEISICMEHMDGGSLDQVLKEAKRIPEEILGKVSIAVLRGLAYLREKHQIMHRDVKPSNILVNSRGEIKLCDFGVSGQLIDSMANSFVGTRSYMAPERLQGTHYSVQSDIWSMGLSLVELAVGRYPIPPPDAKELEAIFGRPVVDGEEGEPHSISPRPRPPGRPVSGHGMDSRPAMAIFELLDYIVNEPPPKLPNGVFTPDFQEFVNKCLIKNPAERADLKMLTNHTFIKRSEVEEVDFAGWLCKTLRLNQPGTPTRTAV

MAP2K6 (human) = MAP2K6 (human) (UniProt P52564)
MAP3K5 (human) = MAP3K5 (human) (UniProt Q99683); details: compound 10.0 µM
MAPK12 (human) = MAPK12 (human) (UniProt P53778)
MAPK13 (human) = MAPK13 (human) (UniProt O15264)
MAPK3 (human) = MAPK3 (human) (UniProt P27361)
MAPK9 (human) = MAPK9 (human) (UniProt P45984)
MAPK9 (human), sequence (P45984 whole entry, looked up): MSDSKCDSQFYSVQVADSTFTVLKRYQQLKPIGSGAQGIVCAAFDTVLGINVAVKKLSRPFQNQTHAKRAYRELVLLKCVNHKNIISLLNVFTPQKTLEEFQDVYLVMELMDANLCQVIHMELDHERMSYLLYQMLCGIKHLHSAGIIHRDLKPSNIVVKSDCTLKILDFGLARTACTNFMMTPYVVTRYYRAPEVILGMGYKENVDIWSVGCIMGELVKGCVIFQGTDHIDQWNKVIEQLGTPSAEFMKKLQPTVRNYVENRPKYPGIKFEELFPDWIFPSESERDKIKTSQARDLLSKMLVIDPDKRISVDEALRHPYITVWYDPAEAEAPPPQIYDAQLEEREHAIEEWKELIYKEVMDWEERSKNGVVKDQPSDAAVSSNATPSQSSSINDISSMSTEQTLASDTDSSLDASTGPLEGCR

MAPKAPK2 (human) = MAPKAPK2 (human) (UniProt P49137)
MAPKAPK5 (human) = MAPKAPK5 (human) (UniProt Q8IW41)
MARK1 (human) = MARK1 (human) (UniProt Q9P0L2)
MELK (human) = MELK (human) (UniProt Q14680)
MKNK1 (human) = MKNK1 (human) (UniProt Q9BUB5)
PAK7 (human) = PAK7 (human) (UniProt Q9P286)
PHKG1 (human) = PHKG1 (human) (UniProt Q16816)
PHKG1 (human), sequence (Q16816 whole entry, looked up): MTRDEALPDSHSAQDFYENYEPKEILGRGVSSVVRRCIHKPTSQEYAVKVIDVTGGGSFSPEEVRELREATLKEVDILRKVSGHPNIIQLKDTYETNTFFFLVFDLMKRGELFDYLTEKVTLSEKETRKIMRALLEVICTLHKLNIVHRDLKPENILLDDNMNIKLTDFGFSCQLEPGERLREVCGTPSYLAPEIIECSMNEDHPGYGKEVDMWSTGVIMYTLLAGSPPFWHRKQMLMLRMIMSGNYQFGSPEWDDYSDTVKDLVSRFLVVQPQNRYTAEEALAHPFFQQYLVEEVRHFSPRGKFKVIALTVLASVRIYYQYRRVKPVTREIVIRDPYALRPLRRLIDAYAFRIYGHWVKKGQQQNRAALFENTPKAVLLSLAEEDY

PIM1 (human) = PIM1 (human) (UniProt P11309)
PIM2 (human) = PIM2 (human) (UniProt Q9P1W9)
PIM3 (human) = PIM3 (human) (UniProt Q86V86)
PRKAA1 or PRKAA2 (rat) = details: accession and sequence are those of the human protein
PRKACA (human) = PRKACA (human) (UniProt P17612)
PRKCZ (human) = PRKCZ (human) (UniProt Q05513)
PRKCZ (human), sequence (Q05513 whole entry, looked up): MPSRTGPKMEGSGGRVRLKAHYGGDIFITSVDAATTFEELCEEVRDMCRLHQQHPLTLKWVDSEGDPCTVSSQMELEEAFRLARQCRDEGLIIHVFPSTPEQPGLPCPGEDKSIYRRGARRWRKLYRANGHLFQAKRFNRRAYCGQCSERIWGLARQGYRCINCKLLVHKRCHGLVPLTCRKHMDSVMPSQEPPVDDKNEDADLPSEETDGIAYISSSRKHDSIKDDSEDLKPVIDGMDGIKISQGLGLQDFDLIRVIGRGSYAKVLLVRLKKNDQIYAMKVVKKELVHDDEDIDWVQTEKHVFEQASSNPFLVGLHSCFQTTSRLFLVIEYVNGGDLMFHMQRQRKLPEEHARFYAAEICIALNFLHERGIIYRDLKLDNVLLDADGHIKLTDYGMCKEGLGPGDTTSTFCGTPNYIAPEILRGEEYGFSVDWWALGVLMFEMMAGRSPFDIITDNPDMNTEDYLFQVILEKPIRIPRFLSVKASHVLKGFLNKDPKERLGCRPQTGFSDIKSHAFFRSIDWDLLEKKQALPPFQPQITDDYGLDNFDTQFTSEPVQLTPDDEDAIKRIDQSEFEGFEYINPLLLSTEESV

[1] = system: SGK1 (human), O00141 [S422D]
STK3 (human) = STK3 (human) (UniProt Q13188)
SYK (human) = SYK (human) (UniProt P43405)

CAMKK2 (human), sequence (Q96RR4 whole entry, looked up): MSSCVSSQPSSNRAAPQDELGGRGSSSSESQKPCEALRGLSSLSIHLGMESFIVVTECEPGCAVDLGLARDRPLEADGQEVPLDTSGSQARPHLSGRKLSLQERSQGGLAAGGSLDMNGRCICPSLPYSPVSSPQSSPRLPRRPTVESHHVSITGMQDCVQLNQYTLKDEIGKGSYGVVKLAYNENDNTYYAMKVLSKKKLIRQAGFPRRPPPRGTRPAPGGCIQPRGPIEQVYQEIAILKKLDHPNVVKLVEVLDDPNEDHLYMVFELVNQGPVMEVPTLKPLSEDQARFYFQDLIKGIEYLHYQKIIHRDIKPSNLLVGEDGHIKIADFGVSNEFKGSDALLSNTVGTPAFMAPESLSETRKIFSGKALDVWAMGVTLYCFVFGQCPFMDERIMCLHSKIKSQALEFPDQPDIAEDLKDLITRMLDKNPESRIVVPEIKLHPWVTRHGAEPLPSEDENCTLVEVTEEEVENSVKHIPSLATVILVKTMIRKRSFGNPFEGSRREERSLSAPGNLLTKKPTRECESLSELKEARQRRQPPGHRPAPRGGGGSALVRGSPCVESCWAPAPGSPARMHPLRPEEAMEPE
DAPK1 (human), sequence (P53355 whole entry, looked up): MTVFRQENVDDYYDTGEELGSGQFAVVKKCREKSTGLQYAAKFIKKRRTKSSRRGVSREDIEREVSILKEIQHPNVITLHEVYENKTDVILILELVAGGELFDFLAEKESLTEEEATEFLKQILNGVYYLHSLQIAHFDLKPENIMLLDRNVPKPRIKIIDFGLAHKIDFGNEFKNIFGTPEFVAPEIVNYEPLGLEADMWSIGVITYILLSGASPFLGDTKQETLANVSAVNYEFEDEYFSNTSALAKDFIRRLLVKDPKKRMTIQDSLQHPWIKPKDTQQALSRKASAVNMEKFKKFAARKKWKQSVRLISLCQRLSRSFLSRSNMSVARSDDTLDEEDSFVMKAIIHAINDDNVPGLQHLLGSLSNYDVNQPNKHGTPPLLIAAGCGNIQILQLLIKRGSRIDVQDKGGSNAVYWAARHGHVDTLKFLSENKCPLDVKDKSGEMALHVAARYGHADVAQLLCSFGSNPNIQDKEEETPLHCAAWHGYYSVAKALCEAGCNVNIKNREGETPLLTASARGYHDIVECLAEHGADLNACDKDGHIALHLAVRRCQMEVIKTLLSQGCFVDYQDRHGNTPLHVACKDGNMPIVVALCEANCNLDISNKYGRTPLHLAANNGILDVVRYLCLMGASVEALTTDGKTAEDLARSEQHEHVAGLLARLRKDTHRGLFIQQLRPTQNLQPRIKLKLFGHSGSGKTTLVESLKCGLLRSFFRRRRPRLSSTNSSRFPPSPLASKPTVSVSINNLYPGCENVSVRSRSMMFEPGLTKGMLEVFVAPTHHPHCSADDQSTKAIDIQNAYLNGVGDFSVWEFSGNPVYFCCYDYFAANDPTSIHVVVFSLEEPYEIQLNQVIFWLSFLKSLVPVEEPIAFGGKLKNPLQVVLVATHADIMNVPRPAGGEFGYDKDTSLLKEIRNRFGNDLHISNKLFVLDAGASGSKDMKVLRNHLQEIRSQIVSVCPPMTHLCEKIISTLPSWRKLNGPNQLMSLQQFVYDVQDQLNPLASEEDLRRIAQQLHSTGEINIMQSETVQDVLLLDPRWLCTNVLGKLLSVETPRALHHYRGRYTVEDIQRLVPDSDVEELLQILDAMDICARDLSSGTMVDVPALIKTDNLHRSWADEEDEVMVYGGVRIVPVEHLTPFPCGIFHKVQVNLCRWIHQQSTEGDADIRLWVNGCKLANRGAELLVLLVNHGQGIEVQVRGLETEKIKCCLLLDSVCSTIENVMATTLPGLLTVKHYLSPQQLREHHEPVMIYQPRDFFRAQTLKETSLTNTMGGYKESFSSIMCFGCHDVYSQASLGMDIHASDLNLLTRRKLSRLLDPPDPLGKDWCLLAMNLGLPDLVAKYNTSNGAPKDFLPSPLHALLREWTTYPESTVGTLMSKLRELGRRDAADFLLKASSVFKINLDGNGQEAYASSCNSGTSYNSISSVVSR

residual activity (BRSK1 (human); compound 1.0 µM): 95%
residual activity (BRSK1 (human); compound 10.0 µM): 93%
residual activity (BRSK2 (human); compound 1.0 µM): 106%
residual activity (BRSK2 (human); compound 10.0 µM): 96%
residual activity (CAMKK2 (human); compound 1.0 µM): 97%
residual activity (CAMKK2 (human); compound 10.0 µM): 108%
residual activity (DAPK1 (human); compound 1.0 µM): 112%
residual activity (DAPK1 (human); compound 10.0 µM): 100%
residual activity (DYRK1A (human); compound 1.0 µM): 103%
residual activity (DYRK1A (human); compound 10.0 µM): 91%
residual activity (EEF2K (human); compound 1.0 µM): 83%
residual activity (EEF2K (human); compound 10.0 µM): 87%
residual activity (EPHB4 (human); compound 1.0 µM): 112%
residual activity (EPHB4 (human); compound 10.0 µM): 120%
residual activity (ERBB4 (human)): 106%
residual activity (FGFR1 (human)): 101%
residual activity (GSK3B (human); compound 1.0 µM): 102%
residual activity (GSK3B (human); compound 10.0 µM): 99%
residual activity (HIPK3 (human); compound 1.0 µM): 100%
residual activity (HIPK3 (human); compound 10.0 µM): 96%
residual activity (IGF1R (human); compound 1.0 µM): 105%
residual activity (IGF1R (human); compound 10.0 µM): 102%
residual activity (IKBKE (human); compound 1.0 µM): 104%
residual activity (IKBKE (human); compound 10.0 µM): 99%
residual activity (MAP2K2 (human); compound 1.0 µM): 58%
residual activity (MAP2K2 (human); compound 10.0 µM): 35%
residual activity (MAP2K6 (human); compound 1.0 µM): 106%
residual activity (MAP2K6 (human); compound 10.0 µM): 88%
residual activity (MAP3K5 (human)): 99%
residual activity (MAPK12 (human); compound 1.0 µM): 109%
residual activity (MAPK12 (human); compound 10.0 µM): 96%
residual activity (MAPK13 (human); compound 1.0 µM): 97%
residual activity (MAPK13 (human); compound 10.0 µM): 91%
residual activity (MAPK3 (human); compound 1.0 µM): 125%
residual activity (MAPK3 (human); compound 10.0 µM): 115%
residual activity (MAPK9 (human); compound 1.0 µM): 85%
residual activity (MAPK9 (human); compound 10.0 µM): 86%
residual activity (MAPKAPK2 (human); compound 1.0 µM): 108%
residual activity (MAPKAPK2 (human); compound 10.0 µM): 93%
residual activity (MAPKAPK5 (human); compound 1.0 µM): 100%
residual activity (MAPKAPK5 (human); compound 10.0 µM): 95%
residual activity (MARK1 (human); compound 1.0 µM): 99%
residual activity (MARK1 (human); compound 10.0 µM): 98%
residual activity (MELK (human); compound 1.0 µM): 94%
residual activity (MELK (human); compound 10.0 µM): 98%
residual activity (MKNK1 (human); compound 1.0 µM): 101%
residual activity (MKNK1 (human); compound 10.0 µM): 99%
residual activity (PAK7 (human); compound 1.0 µM): 88%
residual activity (PAK7 (human); compound 10.0 µM): 96%
residual activity (PHKG1 (human); compound 1.0 µM): 103%
residual activity (PHKG1 (human); compound 10.0 µM): 96%
residual activity (PIM1 (human); compound 1.0 µM): 105%
residual activity (PIM1 (human); compound 10.0 µM): 106%
residual activity (PIM2 (human); compound 1.0 µM): 118%
residual activity (PIM2 (human); compound 10.0 µM): 96%
residual activity (PIM3 (human); compound 1.0 µM): 111%
residual activity (PIM3 (human); compound 10.0 µM): 95%
residual activity (PRKAA1 or PRKAA2 (rat); compound 1.0 µM): 99%
residual activity (PRKAA1 or PRKAA2 (rat); compound 10.0 µM): 103%
residual activity (PRKACA (human); compound 1.0 µM): 90%
residual activity (PRKACA (human); compound 10.0 µM): 97%
residual activity (PRKCZ (human); compound 1.0 µM): 109%
residual activity (PRKCZ (human); compound 10.0 µM): 97%
residual activity ([1]; compound 1.0 µM): 113%
residual activity ([1]; compound 10.0 µM): 100%
residual activity (STK3 (human); compound 1.0 µM): 112%
residual activity (STK3 (human); compound 10.0 µM): 112%
residual activity (SYK (human); compound 1.0 µM): 99%
residual activity (SYK (human); compound 10.0 µM): 103%
SMILES: Cc1ccc(=O)n(-c2ccccc2)c1
